Values after ≈ are worked out from the molar mass of the structure shown. Read-outs that look alike come from different tables or passages of the source.
Assays:
[1] = target: T1, N-36/C-34 complex (HIV-1 gp41 core) (Human immunodeficiency virus type 1 group M subtype B, UniProt P04578); test: biochemical; format: binding; settings: for Inhibitory activity on complex formation by N-36 and C-34 (in words): no concentration stated; for Inhibition of NC-1 detectable complex formation by N-36 and C-34 (in words): compounds at 10 μg/ml, FIG. 13
T1 construct: Peptides derived from the NHR and CHR regions of gp41, designated N- and C-peptides; made in house; host or cells: chemical synthesis (solid-phase FMOC)
Method: For detection of peptide complexes, a direct and a sandwich ELISA were used. In the direct ELISA, the N- and C-peptides were mixed at equimolar concentration in PBS and diluted in coating buffer. Then, the peptide complexes were directly coated onto the wells of microplate. In the sandwich ELISA, the plate was coated with IgG (10 μg/ml) purified from rabbit antisera directed against N36(L6)C34, followed by the addition of the peptide complexes formed by mixing N- and C-peptides in PBS in equimolar concentrations. To screen for antiviral agents, compounds were pre-incubated with N-peptides at 37° C. for 30 minutes before mixing with the C-peptides. The binding of the peptide complexes to the antibodies was then detected as described above.
The percentage of inhibition by the compounds of the binding of NC-1 to the peptide complexes was calculated as described in Jiang, S., K. Lin, and A. R. Neurath, 1991, “Enhancement of human immunodeficiency virus type-1 (HIV-1) infection by antisera to peptides from the envelope glycoproteins gp120/gp41”, J. Exp. Med., 174, 1557-1563.
A sandwich ELISA was established to screen for compounds that interfere with the formation of the N-36/C-34 complex. N-36 (2 μM) was preincubated with compounds at graded concentrations at 37° C. for 30 minutes, followed by the addition of C-34 (2 μM). After incubation at 37° C. for 30 minutes, the mixture was added to wells of a 96-well polystyrene plate (Immulon I, Dynatech Laboratories, Inc., Chantilly, Va.) which were precoated with IgG (10 μg/ml) purified from rabbit antisera directed against N36(L6)C34. […] Absorbance at 450 nm (A450) was read using an ELISA reader (Dynatech Laboratories, Inc., Chantilly, Va.). The percentage of inhibition by the compounds of the binding of NC-1 to the peptide complexes was calculated as described in Jiang S., K. Lin, and A. R. Neurath, 1991, “Enhancement of human immunodeficiency virus type-1 (HIV-1) infection by antisera to peptides from the envelope glycoproteins gp120/gp41”, J. Exp. Med., 174, 1557-1563. The concentration for 50% inhibition (IC50) was calculated using a computer program, designated Calcusyn (Chou, T.-C., 1991, “The median-effect principle and the combination index for quantitation of synergism and antagonism. In Synergism and Antagonism in Chemotherapy”, T.-C. Chou and D. C. Rideout, editors, Academic Press, San Diego, 61-102).

[2] = system: H9/HIV-1IIIB cells and MT-2 cells; test: cells; format: cell-based; settings: for IC50: Human immunodeficiency virus 1, MT2, 2 h, read-out: IC50 ± SD Cell fusion; for Inhibitory activity on HIV-1-mediated cell fusion (in words): no concentration stated; for Inhibition of HIV-1-mediated cell fusion (in words): compounds at 10 μg/ml, FIG. 13
Method: A dye transfer assay was used for detection of HIV-1-mediated cell fusion as described in Jiang et al., Nature, 365, 113 (1993). H9/HIV-1IIIB cells were labeled with a fluorescent reagent, 2′,7′-bis-(2-carboxyethyl)-5-and-6-carboxyfluorescein acetoxyethyl ester (BCECF-AM), (Molecular Probes, Inc., Eugene, Oreg.) and incubated with MT-2 cells (ratio=1:10) in a 96-well plate at 37° C. for 2 hours in the presence or absence of peptides or compounds tested. The fused and unfused BCECF-labeled HIV-1 infected cells were counted under an inverted fluorescence microscope (Zeiss, Germany) with an eyepiece micrometer discs. The percentage of inhibition of cell fusion was calculated as described in Jiang et al., 1993, Nature, 365, 113.
A dye transfer assay was used for detection of HIV-1 mediated cell fusion as described in Jiang, S., K. Lin, N. Strick, and A. R. Neurath, 1993, Inhibition of HIV-1 infection by a fusion domain binding peptide from HIV-1 envelope glycoprotein gp41, Biochem. Biophys. Res. Commun., 195, 533-538.
H9/HIV-1IIIB cells were labeled with a fluorescent reagent, 2′,7′-bis-(2-carboxyethyl)-5-and-6-carboxyfluorescein acetoxyethyl ester (BCECF-AM) (Molecular Probes, Inc., Eugene, Oreg.) and then incubated with MT-2 cells (ratio=1:10) in 96-well plates at 37° C. for 2 hours in the presence or absence of the compounds tested. The fused and unfused BCECF-labeled HIV-1 infected cells were counted under an inverted fluorescence microscope (Zeiss, Germany) with an eyepiece micrometer disc. The percentage of inhibition of cell fusion and the IC50 values were calculated as described in Jiang et al., (1993), Biochem. Biophys. Res. Commun., 195, 533-538.

[3] = system: HIV-1IIIB; test: HIV-1-mediated cytopathic effect (CPE), XTT; format: cell-based; settings: for selectivity ratio at 6 days: human, read-out: Selective Index (S.I.) = CC50/IC50 for CPE
Method: The inhibitory activity of the compounds was determined by a calorimetric method based on protection of cells against HIV-1-mediated CPE, as described in Jiang et al., (1991), J. Exp. Med., 174, 1557-1563. 1×10^4 MT-2 cells in 96-well plates were infected with diluted HIV-1IIIB in 200 μl RPMI 1640 medium containing 10% FBS in the presence of compounds at graded concentrations. After 1 hour, 24 hours and 4 days, half of the culture media were changed. On the sixth day post infection, an indicator, XTT tetrazolium dye (1 mg/ml; 50 μl/well; PolySciences, Inc., Warrington, Pa.), was added to the cells. After 4 hours, the soluble intracellular formazan was determined calorimetrically at 450 nm. The percent of inhibition of CPE and the IC50 values were calculated as described above.

[4] = In vitro cytotoxicity, XTT; format: cell-based; settings: human
Method: The in vitro cytotoxicity for MT-2 cells of the compounds was determined in 96-well plates using the XTT dye to measure cell viability in the absence of virus. Ten μl of 5% TRITON X-100 were added to the wells corresponding to positive controls (“P”) and 10 μl medium was added to wells corresponding to negative controls (“N”). The percent cytotoxicity was calculated using the following formula: % cytotoxicity=[(E−N)/(P−N)]×100%, wherein “E” represents experimental data in the presence of compounds. The concentration corresponding to 50% cytotoxicity (CC50) for MT-2 cells was calculated using the Calcusyn computer program. The selectivity index (S.I.=CC50/IC50) for each compound was calculated.

[5] = Human immunodeficiency virus 1, MT2, read-out: IC50 ± SD CPE
[6] = 50% cytotoxic concentration, MT-2 cells, no virus, read-out: CC50 ± SD
[7] = Human immunodeficiency virus 1, MT2, MT-2 cells, sixth day post infection, read-out: IC50 ± SD CPE

T1 sequence (P04578 546-581, one chain of several): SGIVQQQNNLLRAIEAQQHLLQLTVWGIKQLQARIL

Molecule | IC50 [1] | IC50 [2] | IC50 [3, 5] | selectivity ratio at 6 days ([3]; MT-2 cells) | CC50 [4, 6] | Inhibitory activity on complex formation by N-36 and C-34 (in words) [1] | Inhibitory activity on HIV-1-mediated cell fusion (in words) [2] | Inhibitory activity on HIV-1-mediated CPE (in words) ([3]; no concentration stated) | Inhibition of NC-1 detectable complex formation by N-36 and C-34 (in words) [1] | Inhibition of HIV-1-mediated cell fusion (in words) [2] | IC50 [3, 7] | CC50 [4]
COC(=O)c1cc(C(=O)OC)cc(N(C(=O)Nc2ccc(Cl)c(Cl)c2)C(C)c2nc3ccccc3c(=O)n2Cc2ccccc2)c1 (stereo not shown) [ADS-J15] | > 152 µM | > 100 µg/mL | > 100 µg/mL | ≤ 1 | 20.9 ± 0.67 µg/mL (≈ 31.8 µM) |  |  |  |  |  |  | 
CC(Nc1ccccc1Cl)c1nc2ccccc2c(=O)n1Cc1ccccc1 (stereo not shown) [ADS-J14] | > 256 µM | > 100 µg/mL | > 100 µg/mL | ≤ 1 | 86.8 ± 5.79 µg/mL (≈ 223 µM) |  |  |  |  |  |  | 
O=C(Nc1cc([N+](=O)[O-])ccc1-c1ccc([N+](=O)[O-])cc1)c1ccc([N+](=O)[O-])cc1Cl [ADS-J9] | > 226 µM | > 100 µg/mL | > 100 µg/mL | ≤ 1 | 47.2 ± 5.48 µg/mL (≈ 107 µM) |  |  |  |  |  |  | 
Cc1ccc(N=Nc2c(S(=O)(=O)O)cc3cc(S(=O)(=O)O)cc(Nc4nc(Cl)nc(Nc5ccccc5)n4)c3c2O)c(S(=O)(=O)O)c1 [ADS-J2, 5-[(4-chloro-6-phenylamino-1,3,5-triazine-2-yl)-amino]-4-hydroxy-3-[(4-methyl-6-sulfophenyl)azo]-2,7-naphthalene disulfonic acid] | 4.4 µM | 21.9 ± 1.38 µg/mL (≈ 30.3 µM) | 30.8 ± 6.74 µg/mL (≈ 42.6 µM) | 9.43 | 290 ± 12.4 µg/mL (≈ 402 µM) | promising inhibitory activity | promising inhibitory activity | promising inhibitory activity |  |  |  | 
O=C(Nc1ccc(Cl)c(Cl)c1)O/N=C(/c1ccccc1)c1ccc(-c2ccccc2)cc1 [ADS-J10] | > 217 µM | > 100 µg/mL | > 100 µg/mL | ≤ 1 | 74.7 ± 6.04 µg/mL (≈ 162 µM) |  |  |  |  |  |  | 
Cc1ccc(N(C(=O)Nc2ccc(Cl)c(Cl)c2)C(C)c2nc3ccccc3c(=O)[nH]2)c(C)c1 (stereo not shown) [ADS-J13, N′-(3,4-dichlorophenyl)-N-[1-(4-oxo-3,4-dihydroquinazolin-2-yl)ethyl]-N-2,4-dimethyl phenylurea] | > 208 µM | > 100 µg/mL | > 100 µg/mL | ≤ 1 | 39.2 ± 7.6 µg/mL (≈ 81.5 µM) |  | does not inhibit |  |  |  |  | 
CC(c1nc2ccc(Cl)cc2c(=O)n1Cc1ccccc1)N(C(=O)c1ccc([N+](=O)[O-])cc1)c1ccc(F)cc1 (stereo not shown) [ADS-J5] | > 180 µM | > 100 µg/mL | > 100 µg/mL | ≤ 1 | 30.2 ± 4.84 µg/mL (≈ 54.2 µM) |  |  |  |  |  |  | 
O=C(O)c1ccc(-c2c3nc(c(-c4ccc(C(=O)O)cc4)c4ccc([nH]4)c(-c4ccc(C(=O)O)cc4)c4nc(c(-c5ccc(C(=O)O)cc5)c5ccc2[nH]5)C=C4)C=C3)cc1 [MTCPP, meso-tetra(4-carboxyphenyl)porphyrin, reference compound] |  |  |  |  |  | some inhibitory activity |  |  | partially inhibited | partially inhibited |  | 
O=S(=O)(O)c1ccc(-c2c3nc(c(-c4ccc(S(=O)(=O)O)cc4)c4ccc([nH]4)c(-c4ccc(S(=O)(=O)O)cc4)c4nc(c(-c5ccc(S(=O)(=O)O)cc5)c5ccc2[nH]5)C=C4)C=C3)cc1 [MTSPP, meso-tetra(4-sulphonatophenyl)porphyrin, reference compound] |  |  |  |  |  | some inhibitory activity |  |  | partially inhibited | partially inhibited |  | 
Cc1ccc(N(C(=O)Nc2ccccc2)C(C)c2nc3ccccc3c(=O)[nH]2)c(C)c1 (stereo not shown) [ADS-J11] | > 242 µM | > 100 µg/mL | > 100 µg/mL | ≤ 1 | 40.8 ± 1.67 µg/mL (≈ 98.8 µM) |  |  |  |  |  |  | 
Cc1ccc(N(C(=O)Nc2cccc(Cl)c2)C(C)c2nc3ccccc3c(=O)[nH]2)c(C)c1 (stereo not shown) [ADS-J12] | > 224 µM | > 100 µg/mL | > 100 µg/mL | ≤ 1 | 54 ± 8.14 µg/mL (≈ 121 µM) |  |  |  |  |  |  | 
[Tyr5,12, Lys7]-polyphemusin II [Compound T-22, reference compound] |  |  |  |  |  | do not inhibit the complex formation |  |  |  |  |  | 
C=CC1C[N@@]2CCC1C[C@@H]2C(OC(=O)c1ccc(OC)cc1)c1ccnc2ccccc12 (stereo partly shown) [ADS-J4] | > 233 µM | > 100 µg/mL |  | ≤ 1 |  |  |  |  |  |  | > 100 µg/mL | 74.1 ± 0.76 µg/mL (≈ 173 µM)
C=Cc1c(C)c2cc3nc(c(CC(=O)O)c4[nH]c(cc5nc(cc1[nH]2)C(C)=C5CC)c(C)c4C(=O)O)[C@@H](CCC(=O)O)[C@@H]3C [chlorin e6, reference compound] |  |  |  |  |  | some inhibitory activity |  |  | partially inhibited | partially inhibited |  | 
CCC1C[N@@]2CCC1C[C@@H]2C(OC(=O)c1ccccc1Cl)c1ccnc2ccc(OC)cc12 (stereo partly shown) [ADS-J7] | > 215 µM | 59.8 ± 8.69 µg/mL (≈ 129 µM) |  | ≤ 1 |  |  |  |  |  |  | > 100 µg/mL | 41.3 ± 2.38 µg/mL (≈ 88.9 µM)
C/C(=N/OC(=O)NS(=O)(=O)c1ccc(C)cc1)c1cc2ccccc2oc1=O [ADS-J6] | > 250 µM | > 100 µg/mL | > 100 µg/mL | ≤ 1 | 286 ± 19.3 µg/mL (≈ 714 µM) |  |  |  |  |  |  | 
O=P(CCP(c1ccccc1)c1ccccc1)(c1ccccc1)c1ccccc1 [ADS-J16] | > 241 µM | 52.3 ± 2.85 µg/mL (≈ 126 µM) | > 100 µg/mL | ≤ 1 | 28.9 ± 5.97 µg/mL (≈ 69.7 µM) |  |  |  |  |  |  | 
